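How tested: cells in 96-well plates exposed to compound for 48 hours at five concentrations. TGI: concentration producing complete growth inhibition.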

Common to all, as to assay: DTP human tumour cell line panel, 48 h
The test system of assay [1] is A549 NSCLC.
Assay [2] concerns HS 578T breast.
Assay [3] has as its system OVCAR-8 ovarian.
In assay [4] the test system is OVCAR-4 ovarian.
The subject of assay [5] is MOLT-4 leukemia.
For assay [6], the system named is TK-10 renal.
The test system of assay [7] is HCT-15 colon.
The subject of assay [8] is MDA-MB-435.
The subject of assay [9] is SN12C renal.
In assay [10] the test system is SNB-75 CNS.
Assay [11] deals with SK-OV-3 ovarian.

Take `CC(=O)N(C(C)=O)n1c(Cc2ccc(C)cc2)nn(C(C)=O)c1=O`: the TGI in [1], in [2], in assay [3], in assay [4], in [5] and in assay [6] was greater than 100 µM in each case. In addition, the TGI in assay [7], in [8], in assay [9], in assay [10] and in [11] was greater than 100 µM each time.
For the compound `COc1ccc(N=C2C(=Nc3ccc(OC)cc3)N(c3ccc(N(C)C)cc3)C(=S)N2c2ccc(OC)cc2)cc1`, the TGI was greater than 100 µM in assay [1]; greater than 100 µM in [2]; greater than 52 µM in [3]; greater than 100 µM in assay [4]; greater than 100 µM in [5]; greater than 100 µM in assay [6]. For the same compound, the TGI was greater than 100 µM in [7]; greater than 100 µM in [8]; greater than 100 µM in assay [9]; greater than 91.8 µM in assay [10]; greater than 100 µM in [11].
Take `O=C1CS[C@@](CC(c2ccc(Cl)cc2)c2ccc(Cl)cc2)(c2ccc(Cl)cc2)N1`: the TGI in [1] is greater than 100 µM; in [2] it was greater than 100 µM; in [3], greater than 100 µM; in assay [4], greater than 100 µM; in [5], 45 µM; in assay [6], greater than 100 µM. Further, the TGI was greater than 100 µM in [7]; greater than 100 µM in assay [8]; 5.42 µM in assay [9]; greater than 100 µM in assay [10]; greater than 100 µM in [11].
As to `CN(C)CCNC(=O)c1ccc(Cl)c2cc3ccccc3nc12`, the TGI is 3.08 µM in assay [1]; 3.07 µM in assay [2]; 6.44 µM in assay [3]; 3.34 µM in assay [4]; 4.03 µM in assay [5]; 5.95 µM in assay [6]. In addition, the total growth inhibition concentration (TGI) worked out at 7.15 µM in [7]; 2.22 µM in [8]; 4.18 µM in [9]; 5.84 µM in assay [10]; 12.8 µM in assay [11].
Take `O=C(O)CNC(=O)c1ccc2cc(C(=O)N3CC(CCl)c4ccc([N+](=O)[O-])cc43)[nH]c2c1` (stereo unspecified): the TGI in assay [1], in assay [2], in assay [3], in assay [4], in [5] and in assay [6] was greater than 100 µM throughout. Besides, the TGI in assay [7], in assay [8], in assay [9], in assay [10] and in assay [11] was greater than 100 µM each time.
In the case of `COC(=O)NC(Cc1ccccc1)NC(C)=O` (stereo unspecified), the TGI in [1], in [2], in assay [3], in assay [4], in [5] and in assay [6] was greater than 100 µM each time. The TGI in assay [7], in assay [8], in assay [9], in [10] and in [11] was greater than 100 µM in each case.
For `NC(=Nc1ccccc1)c1ccccc1N`, the TGI in [1], in assay [2], in [3], in [4], in [5] and in assay [6] was greater than 100 µM throughout. Moreover, the TGI in assay [7], in assay [8], in [10] and in assay [11] was greater than 100 µM in each case.
In the case of `N#CC[N+]1(Cc2ccccn2)CCCC1`, the TGI in assay [1], in assay [2], in assay [3], in [4], in [5] and in assay [6] was greater than 100 µM each time. In addition, the TGI in assay [7], in assay [8], in assay [9], in assay [10] and in [11] was greater than 100 µM in each case.
Regarding `O=[N+]([O-])c1ccc(N2N=C(c3ccc4ccccc4c3O)CC2c2ccc(Cl)cc2)c([N+](=O)[O-])c1` (stereo unspecified), the TGI in assay [1] was greater than 100 µM; in assay [2], greater than 100 µM; in assay [3], greater than 100 µM; in assay [4], greater than 100 µM; in assay [5] it was 49 µM; in assay [6], greater than 100 µM. For the same compound, the total growth inhibition concentration (TGI) in assay [7] is greater than 100 µM; in assay [8], 33 µM; in assay [9], greater than 100 µM; in assay [10] it was greater than 100 µM; in assay [11] it was greater than 100 µM.
For `CCCN(CCC)C1CCc2c(ccc3cc[nH]c23)C1` (stereo unspecified), the TGI is greater than 100 µM in assay [1]; greater than 100 µM in [2]; greater than 100 µM in [3]; greater than 100 µM in assay [4]; 96.7 µM in assay [5]; greater than 100 µM in assay [6]. Moreover, the TGI in [7], in [8], in assay [9], in [10] and in [11] was greater than 100 µM in each case.
In the case of `CC12ON(P(=O)(c3ccccc3)c3ccccc3)C(C)(c3ccccc31)c1ccccc12`, the TGI in assay [1], in assay [2], in [3], in assay [4], in [5] and in assay [6] was greater than 100 µM in each case. In addition, the TGI in assay [7], in assay [8], in [9], in assay [10] and in assay [11] was greater than 100 µM in each case.
Take `Cc1cc(N(CCC#N)CCC#N)ccc1/C=C1\SC(=S)NC1=O`: the TGI in [1] is greater than 100 µM; in [2], 85 µM; in assay [3], greater than 100 µM; in assay [4], greater than 100 µM; in assay [5] it was greater than 100 µM; in assay [6], greater than 100 µM. In addition, the TGI in [7] was greater than 100 µM; in assay [8], greater than 100 µM; in assay [9] it was greater than 100 µM; in assay [10], 93.6 µM; in assay [11], greater than 100 µM.

Broadly, the TGI is the concentration at which net growth stops.

For the origin of these results see PubChem BioAssay (NCI).
